# Where a name gives a salt, the structure may show the parent alone. Read-outs that look alike come from different tables or passages of the source.
# Assays:
# male broilers [1] = test: Study 1: growth performance and carcass responses of male broilers, compounds in feed vs positive and negative controls; type: in vivo, chicken; settings: 14 days; for change in vivo at 15 ppm, 15 µg/mL: Gallus gallus, feed or water, 336 h
# Text: An objective of this study is to evaluate growth performance and carcass responses of male broilers by comparing non-zero dosages of the above compounds versus a positive control (Compound 1) and negative controls. Table 1 sets out the specific treatment groups:
# The route of administration is oral, with the compounds mixed in feed, and provided Ad libitum. The age of the chickens of Day 1 of the study is 35 days old. Body weights are taken on the following days: • 1) Study Day 1 (pen weight) • 2) Study Day 14 (individual animal weights) • 3) Study Day 15 (individual weights on selected animals) • 4) Study Day 16 (blocks 1-5) • 5) Study Day 17 (blocks 6-10).
# (§1) Following collection of final weights, the following processing data is collected (hot weights) on individual animals: • 1) Live weight • 2) Hot carcass weight • 3) Fat pad weight • 4) Hot breast muscle weight • 5) Hot bone in leg weight
# male broilers [2] = test: Study 2: growth performance and carcass responses of male broilers, compounds in feed in the last 14 days prior to slaughter; type: in vivo, chicken
# Experimental: Compounds 2, 5, and 9 are used in this study. The study is conducted to evaluate growth performance and carcass responses of male broilers by comparing non-zero dosages of the compounds, versus negative control, administered in the last 14 days prior to slaughter. Table 3 sets out the specific treatment groups.
# The route of administration is oral, with the compounds mixed in feed, and provided Ad libitum. The age of the chickens of Day 1 of the study is 35 days old. Body weights are taken on the following days: • 1) Study Day 1 (pen weight) • 2) Study Day 15 (individual animal weights) • 3) Study Day 16 (individual weights on selected animals in animals in blocks 1-4) • 4) Study Day 17 (individual weights on selected animals in animals in blocks 5-8)
# as §1
# [3] = system: Hubbard M99 X Cobb chicks; test: Study 3: dose response in live performance and carcass yields of commercial broilers raised to a small-size market; type: in vivo, chicken
# Experimental: This study is conducted to determine the dose response of the Compound 5 measured in live performance and carcass yields of commercial broilers raised to a small-size market when fed a “typical” feed. 2400 Hubbard M99 X Cobb chicks (1200 male/1200 female) are used in this study. Compound 5 is administered at the following doses: 0, 2, 4, 8, and 16 ppm, orally in feed, beginning when the chicks are 24 days of age and ending when the chicks are 38 days of age. The five different Compound 5 doses are administered in a mash diet formulated to meet all nutrient recommendations using only commercially available ingredients.
# Parameters measured in the study include ADG (average daily gain), ADFI (average daily feed intake), GE (gain efficiency), and FE (feed efficiency). The birds are measured for carcass (without giblets), breast muscle (boneless-skinless), and leg-quarter weights. The live body weight on the day of processing is used to calculate the yields for carcass, breast meat, and leg quarters for the birds.
# [4] = system: Ross X Ross 708 male chicks; test: Study 4: live performance and carcass traits of broilers; type: in vivo, chicken; settings: 16 ppm in feed vs 0 ppm, 34 to 48 days of age
# Experimental: (§2) This study is conducted to investigate the effects of Compound 5 on live performance and carcass traits of broilers, and to evaluate the emission of various gases from broilers provision of feed with or without Compound 5. Ross X Ross 708 male chicks are used in this study. Compound 5 is administered at the following doses: 0 and 16 ppm, orally in feed, beginning when the chicks are 34 days of age and ending when the chicks are 48 days of age. The Compound 5 doses are administered in a mash diet formulated to meet all nutrient recommendations using only commercially available ingredients.
# (§3) Parameters measured in the study include ADG, ADFI, and FCR. The birds are measured for carcass (without giblets), breast muscle (boneless-skinless), leg-quarter, and abdominal fat weights. The live body weight on the day of processing is used to calculate the yields for carcass, breast meat, and leg quarters for the birds. Also measured are emissions of various gases. Cumulative gas emission are monitored and calculated for the following gases: NH3, NO, NO2, H2S, SO2, methane/non-methane total hydrocarbon, O2, and CO2. The efficacy of Compound 5 is determined by the cumulative emission of these gases, as well as by standardizing these cumulative values to their body, carcass, breast meat, and leg-quarter weights.
# [5] = system: Ross X Ross 708 male chicks; test: Study 4: cumulative gas emission from broilers; type: in vivo, chicken; settings: 16 ppm in feed, 34 to 48 days of age, compared to untreated birds
# Experimental: as §2, §3
# [6] = Ames assay (mutagenicity); type: cell-based; settings: compared with the other compounds tested
# Zebrafish = Zebrafish assay (teratogenesis/chromosomal impact); type: in vivo; settings: compared with the other compounds tested
# [7] = 15 ppm in feed ad libitum, male broilers, percent change from negative control, * in cell = not significant
# [8] = 0, 2, 4, 8, 16 ppm in feed, 24 to 38 days of age
# [9] = 0, 2, 4, 8, 16 ppm in feed, 24 to 38 days of age, male and female chicks
smiles,measurement,setting,value
"CC(C)(Cc1ccc(Oc2ccccn2)cc1)NC[C@H](O)COc1cccc2c1C(C)(C)C(=O)N2 [Compound 5, 4-[{(2S)-3-({1,1-dimethyl-2-[4-(pyridin-2-yloxy)phenyl]ethyl}amino)-2-hydroxypropyl]oxy}-3,3-dimethyl-1,3-dihydro-2H-indol-2-one hydrochloride]",Ave daily live wt gain % inc.,male broilers [1]; [7],5.8%
same,Breast wt % inc.,male broilers [1]; [7],6.0%
same,Feed intake % inc.,male broilers [1]; [7],1.1* %
same,Gain effic % inc.,male broilers [1]; [7],4.9%
same,Leg wt % inc.,male broilers [1]; [7],8.1%
same,Fat Pad wt % dec.,"male broilers [1]; 15 ppm in feed ad libitum, male broilers, percent decrease from negative control, * in cell = not significant",17.4%
same,fat pad weight (in words),male broilers [1]; 15 ppm in feed,reduce fat pad weight
same,feed intake (in words),male broilers [1]; 15 ppm in feed,significant increase in feed intake
same,gain versus untreated control (in words),male broilers [1]; 15 ppm in feed,significantly greater than untreated control
same,significance of the fat pad weight difference,male broilers [1]; 15 ppm in feed,significant
same,improvement versus negative control and positive control (in words),"male broilers [1]; 15 ppm in feed, positive control = Compound 1",significantly better improvement than both the negative control and the positive control
same,"change in vivo at 15 ppm, 15 µg/mL","male broilers [1]; 15 ppm in feed ad libitum, male broilers 35 days old at Day 1, percent change from negative control, * in cell = not significant vs negative control, read-out: ADG % inc.",5.1%
same,"change in vivo at 15 ppm, 15 µg/mL","male broilers [1]; 15 ppm in feed ad libitum, male broilers, percent change from negative control, * in cell = not significant, read-out: Hot carcass wt % inc.",5.8%
same,ADG versus negative control group,male broilers [2]; 3.5 ppm in feed,significantly higher
same,F/G ratio (feed:gain efficiency) versus negative control group,male broilers [2]; 3.5 ppm in feed,significantly lower
same,G/F ratio (gain:feed efficiency) versus negative control group,male broilers [2]; 3.5 ppm in feed,significantly higher
same,hot bone-in leg weight versus negative control group,male broilers [2]; 3.5 ppm in feed,significantly higher
same,hot breast muscle weight versus negative control group,male broilers [2]; 3.5 ppm in feed,significantly higher
same,hot carcass weight versus negative control group,male broilers [2]; 3.5 ppm in feed,significantly higher
same,ADG versus negative control group,male broilers [2]; 7 ppm in feed,significantly higher
same,F/G ratio (feed:gain efficiency) versus negative control group,male broilers [2]; 7 ppm in feed,significantly lower
same,G/F ratio (gain:feed efficiency) versus negative control group,male broilers [2]; 7 ppm in feed,significantly higher
same,hot bone-in leg weight versus negative control group,male broilers [2]; 7 ppm in feed,significantly higher
same,hot breast muscle weight versus negative control group,male broilers [2]; 7 ppm in feed,significantly higher
same,hot carcass weight versus negative control group,male broilers [2]; 7 ppm in feed,significantly higher
same,leg-quarter weight,[3]; [8],Improvements are observed
same,leg-quarter yield,[3]; [8],Improvements are observed
same,FE (feed efficiency),[3]; [9],Improvements are observed
same,GE (gain efficiency),[3]; [9],Improvements are observed
same,"dose response of the improvements (GE, FE, leg-quarter weight and yield)","[3]; doses 2, 4, 8, 16 ppm in feed",doses at above 2 ppm do not show additional benefit
same,GE and FE by sex,"[3]; male versus female broilers, 24 to 38 days of age",positively impacted only in female broilers
same,live performance and carcass traits monitored,[4],"improvements in all live performance carcass traits monitored, except for ADFI and mortality"
same,reduction in NH3 emission standardized to live weight of the birds or its saleable cuts,[5],more than 30%
same,reduction of cumulative emission of H2S,[5],19.0%
same,reduction of cumulative emission of NH3,[5],29.2%
same,Ames assay result (mutagenicity),[6],better results
same,Zebrafish assay result (teratogenesis/chromosomal impact),Zebrafish,better results

# From patent US20150203471A1, “METHODS FOR IMPROVING CHICKEN PRODUCTION” (ELI LILLY AND COMPANY, priority 2012, published 2015)
